Test results from patent US10961539B2, “Promoter system inducing expression by 3-hydroxypropionic acid and method for biological production of 3-hydroxypropionic acid using same” (NOROO IC Co., Ltd., priority 2015, dated 2021).

Tests used:
[1] = tested on: 3hpdh, 3hibdhIV, and mmsadh; test: Inducer specificity of gene expression (FIGS. 4 and 5); format: cell-based, Pseudomonas denitrificans
C4-LysR = test: GFP reporter inserted at C4-LysR position; format: cell-based, Pseudomonas denitrificans; conditions: w 3-HP 25 mM
Description: The effect of the O1 and O2 operators on biosynthesis of the C4-LysR protein and the mmsadh expression was examined by using a green fluorescent protein (GFP) as a reporter (Table 2). In Table 2, the effect of the C4-LysR protein and the O1 and O2 operators on the expression of the C4-LysR and the mmsadh. The relative size of the GFP was shown relative to the wild type in the absence of 3-HP. the C4-LysR protein was either not present or was produced by a constitutive promoter, and a plasmid was prepared to control the expression of the GFP upon the existing promoter having the O1 and O2 operators. Then, the experiment was carried out by inserting the prepared plasmid into a host of P. denitrificans from which genes between the C4-LysR and the mmsadh was deleted. Accordingly, the expression of the GFP was suppressed by the C4-LysR protein itself. That is, when the C4-LysR is expressed, the GFP expression was reduced by more than 10-fold. In addition, the expression regulation was also constant regardless of the presence of 3-HP. In this regard, it was confirmed that the transcription of C4-LysR mRNA was negatively regulated by the C4-LysR protein. This experiment was repeated by using a promoter that randomized the O1 and O2 operators to eliminate the symmetrical dyad. As a result, in the case where the O1 or O2 operator site was randomized, the GFP expression was not regulated by the C4-LysR protein, referring that the C4-LysR protein in the P. denitrificans strain was negatively regulated by the strain itself.

O=C(O)CCO [3-HP, 3-hydroxypropionic acid]
inducer of expression of mmsadh and 3hibdhIV ([1]; FIG. 4): acts as an inducer
amplification of the genes 3hpdh, 3hibdhIV and mmsadh by the compound ([1]; FIGS. 4 and 5): amplified
relative size of GFP (relative to wild type in the absence of 3-HP) (C4-LysR; O1 & O2 mutation): 10
relative size of GFP (relative to wild type in the absence of 3-HP) (C4-LysR; O1 mutation): 10
relative size of GFP (relative to wild type in the absence of 3-HP) (C4-LysR; O2 mutation): 1
relative size of GFP (relative to wild type in the absence of 3-HP) (C4-LysR; wildtype): 1
relative size of GFP (relative to wild type in the absence of 3-HP) (C4-LysR; ΔC4-LysR): 10
